Literature values in patent US6428772B1, “Acne treatment composition with cooling effect” (Blistex Inc., priority 2001, dated 2002).
Read-outs that look alike come from different tables or passages of the source.

Columns and labels:
[1] = test system: histamine induced itching; conditions: Neuroscience Letters 1995, 187:3, pp. 157-160
[2] = not given; remark: listed apart in the source

| SMILES | effect on histamine induced itching [1] | solubility in alcohol | solubility in water ([2]; water) | volume of alcohol dissolving 1 gram (1 gram) | pH of the solution produced ([2]; 1 gram in about 460 ml of water) | volume of water dissolving 1 gram ([2]; 1 gram, water, room temperature) | solubility in water ([2]; water, room temperature) |
| --- | --- | --- | --- | --- | --- | --- | --- |
| CC1CCC(C(C)C)C(O)C1 (centres unmarked) [menthol] | effective | – | – | – | – | – | – |
| O=C(OOC(=O)c1ccccc1)c1ccccc1 [Benzoyl peroxide, benzoyl peroxide] | – | sparingly soluble | sparingly soluble | – | – | – | – |
| O=C(O)c1ccccc1O [Salicylic acid, salicylic acid] | – | – | sparingly soluble | about 2.7 ml | 2.4 | about 460 ml | about 0.2 % by weight |
